The results in this text go back to ChEMBL document CHEMBL3739342, “Varitatin A, a Highly Modified Fatty Acid Amide from Penicillium variabile Cultured with a DNA Methyltransferase Inhibitor” (J Nat Prod, 2015).

Calls of active or inactive are those of the source. The calls are words filed in the database; no cut-off is given here.

The target of assay [1] is Platelet-derived growth factor receptor beta (Homo sapiens) (UniProt P09619). The assay is described as follows: Inhibition of PDGFR-beta (unknown origin) at 1 uM by ELISA. Background: ELISA stands for enzyme-linked immunosorbent assay.
A short description of assay [2]: Cytotoxicity against human HCT116 cells by SRB assay. Type of assay: functional, cell-based. The following applies: HCT-116. (In SRB staining, fixed cells bind dye roughly in proportion to their protein.)
The species named for a further assay is Homo sapiens. The assay is described as follows: Inhibition of PTK (unknown origin) at 1 uM by ELISA.
Assay [3] deals with Receptor tyrosine-protein kinase erbB-4 (Homo sapiens) (UniProt Q15303). The assay is described as follows: Inhibition of ErbB4 (unknown origin) at 1 uM by ELISA.
Receptor tyrosine-protein kinase erbB-4 (Homo sapiens), sequence (Q15303 whole entry): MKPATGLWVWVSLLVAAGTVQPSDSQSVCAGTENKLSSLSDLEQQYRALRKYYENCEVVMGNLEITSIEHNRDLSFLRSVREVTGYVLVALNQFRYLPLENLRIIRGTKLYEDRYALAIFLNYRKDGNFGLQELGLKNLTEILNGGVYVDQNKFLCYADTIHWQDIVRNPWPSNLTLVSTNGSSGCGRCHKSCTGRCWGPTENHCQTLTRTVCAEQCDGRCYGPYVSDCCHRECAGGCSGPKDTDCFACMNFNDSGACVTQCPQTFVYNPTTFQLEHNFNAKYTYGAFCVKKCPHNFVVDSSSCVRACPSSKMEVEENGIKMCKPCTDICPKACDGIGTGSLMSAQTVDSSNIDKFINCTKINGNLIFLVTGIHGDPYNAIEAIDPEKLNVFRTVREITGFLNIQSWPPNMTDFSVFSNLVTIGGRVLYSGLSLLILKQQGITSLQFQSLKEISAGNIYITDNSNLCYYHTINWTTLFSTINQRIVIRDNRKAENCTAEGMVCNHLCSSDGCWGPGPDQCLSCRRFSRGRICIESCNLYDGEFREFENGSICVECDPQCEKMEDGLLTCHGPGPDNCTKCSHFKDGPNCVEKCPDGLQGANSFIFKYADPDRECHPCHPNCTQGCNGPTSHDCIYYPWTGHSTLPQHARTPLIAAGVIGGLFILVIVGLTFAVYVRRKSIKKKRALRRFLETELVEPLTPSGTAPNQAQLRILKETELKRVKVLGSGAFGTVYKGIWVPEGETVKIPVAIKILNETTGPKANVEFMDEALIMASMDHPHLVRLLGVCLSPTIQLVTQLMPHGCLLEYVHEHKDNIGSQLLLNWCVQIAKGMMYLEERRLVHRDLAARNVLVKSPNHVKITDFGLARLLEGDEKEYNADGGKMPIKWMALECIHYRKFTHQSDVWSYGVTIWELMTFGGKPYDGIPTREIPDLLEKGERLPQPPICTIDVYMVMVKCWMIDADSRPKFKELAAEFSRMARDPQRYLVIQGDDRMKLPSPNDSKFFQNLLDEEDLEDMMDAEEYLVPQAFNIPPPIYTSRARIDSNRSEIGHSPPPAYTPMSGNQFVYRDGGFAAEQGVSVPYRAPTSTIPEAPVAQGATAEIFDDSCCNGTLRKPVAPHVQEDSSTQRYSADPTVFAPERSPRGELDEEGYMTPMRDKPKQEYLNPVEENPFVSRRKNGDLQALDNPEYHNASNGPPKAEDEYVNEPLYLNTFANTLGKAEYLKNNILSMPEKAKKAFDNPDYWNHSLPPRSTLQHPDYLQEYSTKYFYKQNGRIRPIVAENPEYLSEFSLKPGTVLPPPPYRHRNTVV

Platelet-derived growth factor receptor beta (Homo sapiens), sequence (P09619 whole entry): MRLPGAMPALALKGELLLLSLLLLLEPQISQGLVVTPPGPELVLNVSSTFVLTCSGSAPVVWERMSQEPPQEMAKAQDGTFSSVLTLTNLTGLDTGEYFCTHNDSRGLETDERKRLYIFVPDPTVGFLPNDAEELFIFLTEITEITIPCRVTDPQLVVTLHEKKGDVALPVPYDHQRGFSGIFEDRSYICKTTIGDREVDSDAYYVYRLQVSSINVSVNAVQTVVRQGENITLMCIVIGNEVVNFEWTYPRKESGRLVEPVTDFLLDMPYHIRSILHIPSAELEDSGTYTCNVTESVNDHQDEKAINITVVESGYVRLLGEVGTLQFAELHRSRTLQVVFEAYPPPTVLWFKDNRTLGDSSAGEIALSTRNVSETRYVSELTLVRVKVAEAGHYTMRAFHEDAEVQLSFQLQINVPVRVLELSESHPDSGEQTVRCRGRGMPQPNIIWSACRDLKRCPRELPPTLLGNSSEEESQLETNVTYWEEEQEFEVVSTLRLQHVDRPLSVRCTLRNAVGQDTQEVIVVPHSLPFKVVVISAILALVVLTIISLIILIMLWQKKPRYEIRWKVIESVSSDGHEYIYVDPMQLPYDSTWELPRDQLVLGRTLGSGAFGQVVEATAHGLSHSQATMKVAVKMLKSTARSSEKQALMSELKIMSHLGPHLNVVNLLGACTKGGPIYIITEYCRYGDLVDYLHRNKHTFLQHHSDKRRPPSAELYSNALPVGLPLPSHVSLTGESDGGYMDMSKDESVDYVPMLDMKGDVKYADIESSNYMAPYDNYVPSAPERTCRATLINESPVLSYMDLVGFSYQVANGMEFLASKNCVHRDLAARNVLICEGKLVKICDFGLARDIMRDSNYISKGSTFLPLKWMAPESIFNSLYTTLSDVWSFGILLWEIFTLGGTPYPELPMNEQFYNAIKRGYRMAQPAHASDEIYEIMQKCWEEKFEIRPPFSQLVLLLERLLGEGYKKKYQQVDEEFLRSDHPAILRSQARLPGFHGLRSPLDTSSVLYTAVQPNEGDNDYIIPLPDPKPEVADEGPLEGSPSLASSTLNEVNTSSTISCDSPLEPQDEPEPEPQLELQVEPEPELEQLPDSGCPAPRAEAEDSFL

A word on the inhibition: it is how much of the control response was suppressed. In general, IC50 refers to the midpoint of a concentration-inhibition curve. A low value points to higher potency. For the compound `CC[C@@H](C)/C=C/CCCC/C=C/C=C/C=C/C(=O)N[C@@H]1CO[C@@]2(O)C=C[C@@H](Cl)[C@H](O)[C@@]2(O)C1`, the inhibition amounted to 50% in assay [1] and 40% in assay [3]. Further, the IC50 in assay [2] was determined as 2800 nM. For the same compound, the inhibition result in the assay filed under Homo sapiens is “Active”.

Turning to `COc1cccc2c1C(=O)c1c(O)c3c(c(O)c1C2=O)C[C@@](O)(C(=O)CO)C[C@@H]3O[C@H]1C[C@H](N)[C@H](O)[C@H](C)O1` [DOXORUBICIN], the IC50 in assay [2] is 200 nM.
